Assays:
Assay type in all cases: functional
NCI-H322M = test: Growth inhibition of human NCI-H322M cells at 10 uM after 48 hrs by SRB assay; settings: read-out: GI
[1] = Growth inhibition of human IGROV1 cells at 10 uM after 48 hrs by SRB assay; settings: IGROV-1, 48 h, read-out: GI
[2] = Growth inhibition of human LOXIMVI cells at 10 uM after 48 hrs by SRB assay; settings: LOX IMVI, read-out: GI
SK-MEL-2 = test: Growth inhibition of human SK-MEL-2 cells at 10 uM after 48 hrs by SRB assay; settings: SK-MEL-2, 48 h, read-out: GI
A498 = test: Growth inhibition of human A498 cells at 10 uM after 48 hrs by SRB assay; settings: A498, 48 h, read-out: GI
[3] = Growth inhibition of human UACC257 cells at 10 uM after 48 hrs by SRB assay; settings: UACC-257, 48 h, read-out: GI
[4] = Growth inhibition of human SNB19 cells at 10 uM after 48 hrs by SRB assay; settings: SNB-19, 48 h, read-out: GI
ACHN = test: Growth inhibition of human ACHN cells at 10 uM after 48 hrs by SRB assay; settings: read-out: GI
[5] = Growth inhibition of human HL-60(TB) cells at 10 uM after 48 hrs by SRB assay; settings: HL-60, 48 h, read-out: GI
SR = test: Growth inhibition of human SR cells at 10 uM after 48 hrs by SRB assay; settings: read-out: GI
NCI-H460 = test: Growth inhibition of human NCI-H460 cells at 10 uM after 48 hrs by SRB assay; settings: NCI-H460, 48 h, read-out: GI
[6] = Growth inhibition of human SW620 cells at 10 uM after 48 hrs by SRB assay; settings: SW-620, 48 h, read-out: GI
[7] = Growth inhibition of human SF539 cells at 10 uM after 48 hrs by SRB assay; settings: SF-539, 48 h, read-out: GI
[8] = Growth inhibition of human Hs 578T cells at 10 uM after 48 hrs by SRB assay; settings: read-out: GI
[9] = Growth inhibition of human Caki1 cells at 10 uM after 48 hrs by SRB assay; settings: CAKI-1, 48 h, read-out: GI
SK-MEL-5 = test: Growth inhibition of human SK-MEL-5 cells at 10 uM after 48 hrs by SRB assay; settings: SK-MEL-5, 48 h, read-out: GI
[10] = Growth inhibition of human DU145 cells at 10 uM after 48 hrs by SRB assay; settings: DU-145, 48 h, read-out: GI
[11] = Growth inhibition of human NCI-ADR-RES cells at 10 uM after 48 hrs by SRB assay; settings: read-out: GI

With `NS(=O)(=O)c1ccc(Nc2nccc(Nc3ccc4[nH]ncc4c3)n2)cc1` the inhibition of growth at 10 µM (NCI-H322M) was -5%, the inhibition of growth at 10 µM [1] was -3% and the inhibition of growth at 10 µM [2] was 14%. The inhibition of growth at 10 µM (SK-MEL-2) was 4%, the inhibition of growth at 10 µM (A498) was 32% and the inhibition of growth at 10 µM [3] was 14%. For the same compound, the inhibition of growth at 10 µM [4] was 4%, the inhibition of growth at 10 µM (ACHN) was -7% and the inhibition of growth at 10 µM [5] was 2%. For the same compound, the inhibition of growth at 10 µM (SR) was 34%, the inhibition of growth at 10 µM (NCI-H460) was 1% and the inhibition of growth at 10 µM [6] was -11%. It also gave an inhibition of growth at 10 µM [7] of -3%, an inhibition of growth at 10 µM [8] of 17% and an inhibition of growth at 10 µM [9] of -4%. For the same compound, the inhibition of growth at 10 µM (SK-MEL-5) was 11%, the inhibition of growth at 10 µM [10] was -6% and the inhibition of growth at 10 µM [11] was -6%.

From ChEMBL document CHEMBL3817755, “Design, synthesis and biological evaluation of indazolepyrimidine based derivatives as anticancer agents with anti-angiogenic and antiproliferative activities” (Medchemcomm, 2016)
